Target: GluA1o-γ8 (GRIA1o-CACNG8 fusion construct) (Homo sapiens (Human), UniProt P42261+Q8WXS5)
Experiment: Calcium flux assay (FLIPR), inhibition of TARP γ8 dependent AMPA receptor activity
Format: cell-based
Details: GluA1o-γ8 (GRIA1o-CACNG8 fusion) in HEK293 cells, calcium flux after 15 μM glutamate
Text: This assay was used to test compounds for their ability to inhibit TARP γ8 dependent AMPA receptor activity. The AMPA receptor is a non-selective cation channel activated by glutamate. Ionotropic glutamate receptors normally desensitize too rapidly to allow detectable calcium influx in a FLIPR assay (Strange et al. (2006). “Functional characterisation of homomeric ionotropic glutamate receptors GluR1-GluR6 in a fluorescence-based high throughput screening assay.” Comb Chem High Throughput Screen 9(2): 147-158). But, this desensitization is incomplete, and a substantial steady-state current remains in the sustained presence of glutamate (Cho et al. (2007). “Two families of TARP isoforms that have distinct effects on the kinetic properties of AMPA receptors and synaptic currents.” Neuron 55(6): 890-904).
An in vitro assay was used to determine the potency of test compounds as inhibitors of the glutamate response of the channel formed by GluA1o-γ8. To ensure a 1:1 stoichiometry of GluA1o and γ8 subunits in the expressed channel, a fusion of the cDNAs for GRIA1o and CACNG8 was used. Following Shi et al (2009) “The stoichiometry of AMPA receptors and TARPs varies by neuronal cell type.” Neuron 62(5): 633-640), the C-terminus of the cDNA for GRIA1o was fused to the N-terminus of the cDNA for γ8. The linker sequence was QQQQQQQQQQEFAT. Channels expressed with this construct appear to have similar properties to channels formed by co-expression of GRIA1o with an excess of CACNG8 (Shi et al. 2009). A clonal cell line in HEK293 cells stably expressing this construct, with a geneticin selection marker, was generated for use in this assay.
Cell expressing the GRIA1o-CACNG8 fusion construct were grown in a monolayer in 96- or 384-well microtiter plates. They were washed with assay buffer (135 mM NaCl, 4 mM KCl, 3 mM CaCl2, 1 mM MgCl2, 5 mM glucose, 10 mM HEPES, pH 7.4, 300 mOs) using a Biotek EL405 plate washer. The cells were then loaded with a calcium-sensitive dye (Calcium-5 or Calcium-6, Molecular Devices) and the test compounds at a range of concentrations. Calcium flux following the addition of 15 μM glutamate was monitored using a Molecular Devices FLIPR Tetra. The fluorescence in each well was normalized to the fluorescence of negative and positive control wells. The negative control wells had no added compounds, and the positive control wells had been incubated with 10 μM CP465022 (a non-subtype-selective AMPA receptor antagonist) (Lazzaro et al. (2002). “Functional characterization of CP-465,022, a selective, noncompetitive AMPA receptor antagonist.” Neuropharmacology 42(2): 143-153). The responses to glutamate as functions of the test compound concentrations were fitted to a four-parameter logistic function. The fitted parameter corresponding to the midpoint was taken to be the potency of inhibition of the compound. The data in Table 4 below illustrates the observed potentcy for the compounds described herein. pIC50 refers to the negative log of the IC50 in molar.

Chain of GluA1o-γ8 (GRIA1o-CACNG8 fusion construct) (P42261 other isoform, or with tags, fused parts or gaps): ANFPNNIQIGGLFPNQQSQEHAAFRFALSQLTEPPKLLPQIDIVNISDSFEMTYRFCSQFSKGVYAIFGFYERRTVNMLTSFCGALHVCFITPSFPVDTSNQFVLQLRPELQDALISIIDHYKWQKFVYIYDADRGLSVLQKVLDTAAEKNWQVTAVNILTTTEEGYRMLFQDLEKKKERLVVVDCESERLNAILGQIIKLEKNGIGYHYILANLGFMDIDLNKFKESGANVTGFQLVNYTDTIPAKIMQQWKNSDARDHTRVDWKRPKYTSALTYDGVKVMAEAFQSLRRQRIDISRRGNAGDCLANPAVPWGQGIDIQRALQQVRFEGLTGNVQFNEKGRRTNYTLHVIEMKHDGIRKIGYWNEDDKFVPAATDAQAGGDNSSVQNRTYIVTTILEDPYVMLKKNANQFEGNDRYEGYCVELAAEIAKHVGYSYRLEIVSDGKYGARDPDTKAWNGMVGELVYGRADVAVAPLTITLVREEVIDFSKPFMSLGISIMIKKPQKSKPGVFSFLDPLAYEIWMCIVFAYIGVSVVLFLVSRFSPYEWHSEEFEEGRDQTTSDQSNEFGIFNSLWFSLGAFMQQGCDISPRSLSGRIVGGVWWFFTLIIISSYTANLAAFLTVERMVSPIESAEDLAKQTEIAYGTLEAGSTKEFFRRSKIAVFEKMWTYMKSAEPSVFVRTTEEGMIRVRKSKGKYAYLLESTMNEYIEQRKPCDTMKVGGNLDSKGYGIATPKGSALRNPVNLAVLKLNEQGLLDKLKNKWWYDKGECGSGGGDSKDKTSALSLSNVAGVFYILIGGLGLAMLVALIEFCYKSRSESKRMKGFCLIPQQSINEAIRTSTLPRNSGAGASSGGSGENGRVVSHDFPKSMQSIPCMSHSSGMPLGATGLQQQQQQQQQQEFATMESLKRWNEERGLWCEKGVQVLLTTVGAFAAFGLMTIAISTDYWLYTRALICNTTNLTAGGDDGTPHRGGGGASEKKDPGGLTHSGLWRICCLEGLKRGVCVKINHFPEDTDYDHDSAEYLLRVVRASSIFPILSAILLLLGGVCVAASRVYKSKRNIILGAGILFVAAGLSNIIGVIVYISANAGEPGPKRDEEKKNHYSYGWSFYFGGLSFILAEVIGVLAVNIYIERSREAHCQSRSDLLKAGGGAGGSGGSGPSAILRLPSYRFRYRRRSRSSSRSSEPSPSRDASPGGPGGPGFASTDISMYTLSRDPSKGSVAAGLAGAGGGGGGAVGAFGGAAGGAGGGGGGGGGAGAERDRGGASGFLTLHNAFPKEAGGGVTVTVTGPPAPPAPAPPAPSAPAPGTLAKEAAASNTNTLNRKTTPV

`O=C1Cc2cc(-n3c(C4CCOC4)nc4ccc(C(F)(F)F)nc43)ccc2N1` (racemic) [Example 52, (racemic)-5-[2-Tetrahydrofuran-3-yl-5-(trifluoromethyl)imidazo[4,5-b]pyridin-3-yl]indolin-2-one] was tested. Which IC50 did it give?
Its IC50 is 20 nM.

For `CCC(C)c1nc2ccc(C(F)(F)F)nc2n1-c1ccc2c(c1)CC(=O)N2` (racemic) [Example 96, (racemic)-5-[2-sec-Butyl-5-(trifluoromethyl)imidazo[4,5-b]pyridin-3-yl]indolin-2-one], which IC50 is on record?
The IC50 was 6.31 nM.

How did the IC50 turn out when `FC(F)(F)c1ccc2nc(C3CCOC3)n(-c3ccc4[nH]ncc4c3)c2n1` (racemic) [Example 100, (racemic)-3-(1H-Indazol-5-yl)-2-tetrahydrofuran-3-yl-5-(trifluoromethyl)imidazo[4,5-b]pyridine] was run?
Its IC50 is 251 nM.

`CCC(C)c1nc2ccc(C(F)(F)F)nc2n1-c1ccc2[nH]ncc2c1` (racemic) [Example 102, (racemic)-3-(1H-Indazol-5-yl)-2-sec-butyl-5-(trifluoromethyl)imidazo[4,5-b]pyridine] was tested. Which IC50 did it give?
The IC50 was 10 nM.

For `CC(F)c1nc2ccc(C(F)(F)F)nc2n1-c1ccc2[nH]ncc2c1` (racemic) [Example 117, (R/S)-2-(1-fluoroethyl)-3-(1H-indazol-5-yl)-5-(trifluoromethyl)imidazo[4,5-b]pyridine], which IC50 is on record?
The IC50 was 5.01 nM.

With `O=c1[nH]c2ccc(-n3c(C4CCOC4)nc4ccc(C(F)(F)F)nc43)cc2o1` (racemic) [Example 161, (R/S)-6-[2-Tetrahydrofuran-3-yl-5-(trifluoromethyl)imidazo[4,5-b]pyridin-3-yl]-3H-1,3-benzoxazol-2-one] as the molecule, how does the IC50 read?
The IC50 was 316 nM.

How did the IC50 turn out when `O=C1Cc2cc(-n3c(C4CCOC4)cc4ccc(C(F)(F)F)nc43)cc(F)c2N1` (racemic) [Example 365, (RS)-7-Fluoro-5-[2-tetrahydrofuran-3-yl-6-(trifluoromethyl)pyrrolo[2,3-b]pyridin-1-yl]indolin-2-one] was run?
Its IC50 is 0.2 nM.

For `COC(C)c1cc2cccnc2n1-c1cc(C)c2c(c1)CC(=O)N2` (racemic) [Example 368, (RS)-5-[2-(1-Methoxyethyl)pyrrolo[2,3-b]pyridin-1-yl]-7-methyl-indolin-2-one], which IC50 is on record?
The IC50 was 31.6 nM.

Which IC50 does the source give for `Cc1cc(-n2c([C@@H](C)F)nc3ccc(C(F)(F)F)nc32)cc2cn[nH]c12` (single isomer, unassigned) [Example 256, (*R)-2-(1-Fluoroethyl)-3-(7-methyl-1H-indazol-5-yl)-5-(trifluoromethyl)imidazo[4,5-b]pyridine] here?
Its IC50 is 0.0794 nM.

With `Cc1cc(-n2c([C@H](C)F)nc3ccc(C(F)(F)F)nc32)cc2cn[nH]c12` (single isomer, unassigned) [Example 257, (*S)-2-(1-Fluoroethyl)-3-(7-methyl-1H-indazol-5-yl)-5-(trifluoromethyl)imidazo[4,5-b]pyridine] as the molecule, how does the IC50 read?
Its IC50 is 0.0501 nM.

How did the IC50 turn out when `CC[C@@H](C)c1nc2ccc(C(F)(F)F)nc2n1-c1cc(Cl)c2[nH]ncc2c1` (single isomer, unassigned) [Example 404, (*R)-2-(sec-Butyl)-3-(7-chloro-1H-indazol-5-yl)-5-(trifluoromethyl)-3H-imidazo[4,5-b]pyridine] was run?
Its IC50 is 0.1 nM.

How did the IC50 turn out when `CC[C@H](C)c1nc2ccc(C(F)(F)F)nc2n1-c1cc(Cl)c2[nH]ncc2c1` (single isomer, unassigned) [Example 405, (*S)-2-(sec-Butyl)-3-(7-chloro-1H-indazol-5-yl)-5-(trifluoromethyl)-3H-imidazo[4,5-b]pyridine] was run?
The IC50 was 0.0631 nM.

How did the IC50 turn out when `CC[C@@H](C)c1nc2ccc(C(F)(F)F)nc2n1-c1cc(C)c2[nH]ncc2c1` (single isomer, unassigned) [Example 406, (*R)-2-(sec-Butyl)-3-(7-methyl-1H-indazol-5-yl)-5-(trifluoromethyl)-3H-imidazo[4,5-b]pyridine] was run?
The IC50 was 0.126 nM.

Which IC50 does the source give for `CC[C@H](C)c1nc2ccc(C(F)(F)F)nc2n1-c1cc(C)c2[nH]ncc2c1` (single isomer, unassigned) [Example 407, (*S)-2-(sec-Butyl)-3-(7-methyl-1H-indazol-5-yl)-5-(trifluoromethyl)-3H-imidazo[4,5-b]pyridine] here?
The IC50 was 0.1 nM.

For `C[C@@H](F)c1nc2ccc(C(F)(F)F)nc2n1-c1cc(Cl)c2[nH]ncc2c1` (single isomer, unassigned) [Example 408, (*R)-3-(7-Chloro-1H-indazol-5-yl)-2-(1-fluoroethyl)-5-(trifluoromethyl)-3H-imidazo[4,5-b]pyridine], which IC50 is on record?
Its IC50 is 0.1 nM.

Which IC50 does the source give for `C[C@H](F)c1nc2ccc(C(F)(F)F)nc2n1-c1cc(Cl)c2[nH]ncc2c1` (single isomer, unassigned) [Example 409, (*S)-3-(7-Chloro-1H-indazol-5-yl)-2-(1-fluoroethyl)-5-(trifluoromethyl)-3H-imidazo[4,5-b]pyridine] here?
The IC50 was 0.0794 nM.

How did the IC50 turn out when `FC(F)(F)c1ccc2nc(-c3ccccc3)n(-c3ccc4[nH]ncc4c3)c2n1` [Example 1, 3-(1H-Indazol-5-yl)-2-phenyl-5-(trifluoromethyl)-3H-imidazo[4,5-b]pyridine] was run?
The IC50 was 0.398 nM.

With `c1ccc(-c2nc3cccnc3n2-c2ccc3[nH]ncc3c2)cc1` [Example 2, 3-(1H-Indazol-5-yl)-2-phenyl-imidazo[4,5-b]pyridine] as the molecule, how does the IC50 read?
Its IC50 is 50.1 nM.

Which IC50 does the source give for `Cc1ccc2nc(-c3ccccc3)n(-c3ccc4[nH]ncc4c3)c2n1` [Example 3, 3-(1H-Indazol-5-yl)-5-methyl-2-phenyl-imidazo[4,5-b]pyridine] here?
The IC50 was 0.794 nM.

With `Cc1ccc2nc(-c3ccc(F)cc3)n(-c3ccc4[nH]ncc4c3)c2n1` [Example 4, 2-(4-Fluorophenyl)-3-(1H-indazol-5-yl)-5-methyl-imidazo[4,5-b]pyridine] as the molecule, how does the IC50 read?
The IC50 was 1 nM.

With `COc1ccc2nc(-c3ccc(F)cc3)n(-c3ccc4[nH]ccc4c3)c2n1` [Example 5, 2-(4-Fluorophenyl)-3-(1H-indol-5-yl)-5-methoxy-imidazo[4,5-b]pyridine] as the molecule, how does the IC50 read?
Its IC50 is 39.8 nM.

With `COc1ccc2nc(-c3ccc(F)cc3)n(-c3ccc4c(c3)CC(=O)N4)c2n1` [Example 6, 5-[2-(4-Fluorophenyl)-5-methoxy-imidazo[4,5-b]pyridin-3-yl]indolin-2-one] as the molecule, how does the IC50 read?
The IC50 was 39.8 nM.

`Fc1ccc(-c2nc3ccc(Cl)nc3n2-c2ccc3[nH]ncc3c2)cc1` [Example 7, 5-Chloro-2-(4-fluorophenyl)-3-(1H-indazol-5-yl)imidazo[4,5-b]pyridine] was tested. Which IC50 did it give?
The IC50 was 2 nM.

Which IC50 does the source give for `Cc1ccc2nc(-c3ccccc3Cl)n(-c3ccc4[nH]ncc4c3)c2n1` [Example 8, 2-(2-Chlorophenyl)-3-(1H-indazol-5-yl)-5-methyl-imidazo[4,5-b]pyridine] here?
The IC50 was 63.1 nM.

Which IC50 does the source give for `Cc1cnc2c(c1)nc(-c1ccccc1)n2-c1ccc2[nH]ncc2c1` [Example 9, 3-(1H-Indazol-5-yl)-6-methyl-2-phenyl-imidazo[4,5-b]pyridine] here?
The IC50 was 25.1 nM.

How did the IC50 turn out when `Clc1ccc2nc(-c3ccccc3)n(-c3ccc4[nH]ncc4c3)c2n1` [Example 10, 5-Chloro-3-(1H-indazol-5-yl)-2-phenyl-imidazo[4,5-b]pyridine] was run?
Its IC50 is 1 nM.

Which IC50 does the source give for `Clc1ccc2nc(C3CCCC3)n(-c3ccc4[nH]ncc4c3)c2n1` [Example 11, 5-Chloro-2-cyclopentyl-3-(1H-indazol-5-yl)imidazo[4,5-b]pyridine] here?
Its IC50 is 10 nM.

How did the IC50 turn out when `Cc1ccc2nc(-c3ccccc3)n(-c3ccc4c(cnn4C(=O)OC(C)(C)C)c3)c2n1` [Example 12, tert-Butyl 5-(5-methyl-2-phenyl-imidazo[4,5-b]pyridin-3-yl)indazole-1-carboxylate] was run?
Its IC50 is 20 nM.

With `FC(F)(F)c1ccc2nc(-c3ccccc3)n(-c3ccc4[nH]ccc4c3)c2n1` [Example 13, 3-(1H-Indol-5-yl)-2-phenyl-5-(trifluoromethyl)imidazo[4,5-b]pyridine] as the molecule, how does the IC50 read?
Its IC50 is 2 nM.

For `O=c1[nH]c2ccc(-n3c(-c4ccccc4)nc4ccc(C(F)(F)F)nc43)cc2s1` [Example 14, 6-[2-Phenyl-5-(trifluoromethyl)imidazo[4,5-b]pyridin-3-yl]-3H-1,3-benzothiazol-2-one], which IC50 is on record?
Its IC50 is 0.158 nM.

Which IC50 does the source give for `O=c1[nH]c2ccc(-n3c(-c4ccccc4)nc4ccc(F)nc43)cc2s1` [Example 15, 6-(5-Fluoro-2-phenyl-imidazo[4,5-b]pyridin-3-yl)-3H-1,3-benzothiazol-2-one] here?
The IC50 was 3.16 nM.
